Consider one sequence from patent publication US20090176711A1, “INHIBITORS OF AMYLOID PRECURSOR PROTEIN PROCESSING” (priority 2008, published 2009).

Test [1] has as its system cleavage of Substrate M by β-secretase. Description: Inhibition of cleavage of Substrate M by β-secretase by complementary and deletion peptides (Examples 1, 5, 6; assay format not stated). Conditions: various concentrations, Substrate M (FIG. 8). The test is classed as biochemical. As to the method:
So far we have focused on c-Sub M peptide. Serial deletions were made from N-terminus or C-terminus of c-Sub M (FIG. 5), and we investigated effect of the deletions on the cleavage of Substrate M. The optimum peptide/substrate ratio for inhibition on the cleavage of substrate was determined by observing the inhibition percentage at various peptide/substrate ratios (FIG. 4). Subsequently, the inhibitory activity of the deletion peptides were tested at 10 inhibitor/substrate ratio and the concentration of the Substrate M was 50 μM. Deletion of the first two amino acids from the N-terminus had little effect on the activity and deletion of five amino acids from the C-terminus of c-Sub M had little effect on the inhibitory activity (FIG. 6). Further deleted peptides were tested for inhibitory activity on the cleavage of Substrate M (FIG. 7).
The above-mentioned peptides that have inhibitory activity were tested at various concentrations for their inhibitory activities on their mutant substrate Substrate M (FIG. 8).

Test [2] addresses T1, Sub-ST6Ga11 (DYEALTLQAKEFQMPKSQE) (Rattus norvegicus, UniProt P13721).
T1 construct: 19 amino acid region (DYEALTL/QAKEFQMPKSQE) that contains the β-cleavage site for investigation was chosen; purchased Peptron, Inc; host or cells: chemical synthesis
Description: Binding of bio-Sub-ST6Ga11 to immobilized HC peptide. The settings on record: HC peptide chemically coupled on microtiter plate. As to the method: Reacti-Bind™ maleic anhydride-activated polystyrene plate (Pierce, IL, USA) was coated with 50 μl of HC peptide (200 μM in distilled water) by chemical coupling for 3 h at room temperature (RT) and washed three times with phosphate buffered saline (PBS) containing 0.05% tween 20 (PBST). The plate was blocked with blocking buffer (0.5% gelatin in PBS) for 1 h at RT. After discarding blocking buffer, biotinylated BACE1 substrates (200 μM) in blocking buffer was applied on the plate and incubated for 2.5 h at RT. Each well was washed three times with PBST. The bound biotinylated BACE1 substrates were detected by incubation with streptavidin-horseradish peroxidase (Str-HRP, 125 mU/ml in blocking buffer) for 2 h at RT. Color reaction was carried out with 50 μl of 3,3′,5,5′-Tetramethylbenzidine Liquid Substrate (Sigma-Aldrich, MO, USA). After stopping the reaction by addition of an equal volume of 1 N HCl, absorbance at 450 nm was read in an automated ELISA reader (EL 312e, Bio-Tek Instruments, VT, USA). All assays were carried out in duplicate.
It was investigated if HC peptide would show specificity for APP in terms of the inhibition of cleavage by BACE1. ST6Ga11 is also cleaved by BACE1. For this experiment, 19 amino acid region (DYEALTL/QAKEFQMPKSQE) that contains the β-cleavage site for investigation was chosen. The 19 amino acid peptide was designated as Sub-ST6Ga11. […]

The target of test [3] is T2, cleavage of Sub-ST6Ga11 by rhBACE1 (Rattus norvegicus, UniProt P13721).
T2 construct: 19 amino acid region (DYEALTL/QAKEFQMPKSQE) that contains the β-cleavage site for investigation was chosen; purchased A&Pep Co., Inc. (non-labelled peptides); R&D Systems (rhBACE1)
Description: HPLC analysis of the cleavage of Sub-ST6Ga11 by rhBACE1. The test is classed as biochemical, human. Conditions: up to 10 inhibitor/substrate ratio, Sub-ST6Ga11 50 μM, 500 nM enzyme. From the text:
One of the advantages of the APP inhibitor described in the present invention is that it is a peptide or a mimetic that bind to the β-secretase cleavage site of APP, thus not affecting other β-secretase substrates. To confirm the specificity of the inventive APP inhibitor, two different types of substrates were used, APP Sub M and ST6Ga11. Both substrates are cleaved by β-secretase under normal conditions and the effect of the inventive APP inhibitor on the substrate cleavage was monitored by HPLC (See the schematic diagram in FIG. 16.) To carry out these experiments, the concentration of β-secretase required for cleavage of both substrates was determined as shown in FIG. 17. For substantial cleavage of ST6Ga11 substrate, 420 nM of the enzyme was required. Therefore, 420 nM of β-secretase was used for the following experiment.
Various concentrations of HC peptide were preincubated with either Sub M (50 μM) or Sub-ST6Ga11 (50 μM, DYEALTLQAKEFQMPKSQE) peptide corresponding to the β-cleavage site of ST6Ga11 for 2 h at RT. The mixtures containing Sub M was treated with 50 nM of rhBACE1 and that containing Sub-ST6Ga11 was treated with 500 nM enzyme for 12 h at RT. Roughly 50% of each BACE1 substrate was cleaved in the absence of HC peptide. The cleavage products were separated on a C18 reversed-phase HPLC column as described above.

Test [4] relates to Substrate M (Sub M, SEVNLDAEFR; β-secretase cleavage site of APPsw). The experiment in a line: Binding of biotin-labeled Substrate M to immobilized complementary (HC) peptides. Conditions: substrate not specified.
Test [5] deals with APP processing in HEK293-APP cells. Description: APP inhibitor activity on HEK293-APP cells (βCTF Western blot). The settings on record: γ-secretase inhibitor and cholesterol added. The test is classed as cell-based, human. As to the method:
In the neuronal cells of the brain, APP is processed by α-secretase or β-secretase. To investigate the effects of the inhibitors on the cell, a cell based assay system was developed as described in FIG. 10. C-terminal fragment of APP remaining on the cell membrane was detected by Western blot. The resulting C-terminal fragments, αCTF or βCTF are further processed by γ-secretase. However, if the cells are treated with the γ-secretase inhibitor, this processing is blocked. As a result, αCTF or βCTF accumulate in the cell. If β-secretase inhibitor or APP inhibitor is added, this processing is blocked and βCTF disappears.
In addition, γ-secretase inhibitor and cholesterol were added to the cells to increase βCTF level. Commercially available peptide-based β-secretase inhibitor was included as control (Lane 6, FIG. 11). To detect the N-terminal fragment of β-amyloid which is a product of APP processing, 6E10 antibody was employed. […] Recently, it has been reported that the commercially available peptide-based inhibitor had to be linked to an oligoarginine transporter peptide to have inhibitory activity against cells. Therefore, mimetic approach is adopted to produce cell permeable analogs. (Chang et al. J. Neurochemistry 2004; 89:1409-1416).
After confirming the ability of the oligo-arginine coupled APP inhibitors to enter the cells, the inhibitors were applied to HEK293-APP cells overexpressing APP to test their inhibitory activities on APP processing. […] This inhibitor started to show significant inhibitory activity beginning from 0.1 μM (lower panel).

As to EFCIQIHF [c-Sub M ΔN1C1], the “concentration dependent inhibitory activity, activity group” value in test [1] is recorded as “most active group”. Besides, the “binding of bio-Sub-ST6Ga11” value in test [2] was “also bound”. In addition, the “inhibition of cleavage of Sub-ST6Ga11 by rhBACE1” value in test [3] is on record as “about 10%”. Also, in test [4], the “absorbance in binding test” value was “high absorbance”. The “inhibitory activity on APP processing (βCTF)” value in test [5] is listed as “none of the inhibitors tested showed inhibitory activity”.
